Assay results from US9889130B2, “Substituted 3-benzofuranyl-indol-2-one-3-acetamididopiperazine derivatives, preparation thereof, and therapeutic use thereof” (SANOFI, priority 2009, dated 2018).

What was measured:
ghrelin receptor = molecular target: T1, ghrelin receptor (Rattus norvegicus, UniProt O08725); assay: Ghrelin antagonism in electrically stimulated rat gastric fundus strips (called In Vivo Test); details: isolated rat gastric fundus strips, electric-field stimulation, ghrelin 0.1 nM-1 μM concentration-response curves, antagonist contact time 30 minutes; read-out: IC50, antagonist activity towards the ghrelin receptor
T1 construct: Strips of approximately 1 cm (5 mm wide) of gastric fundus were cut out along the longitudinal axis; from tissue; host or cells: rat gastric fundus strips
T1 sequence (O08725 whole entry): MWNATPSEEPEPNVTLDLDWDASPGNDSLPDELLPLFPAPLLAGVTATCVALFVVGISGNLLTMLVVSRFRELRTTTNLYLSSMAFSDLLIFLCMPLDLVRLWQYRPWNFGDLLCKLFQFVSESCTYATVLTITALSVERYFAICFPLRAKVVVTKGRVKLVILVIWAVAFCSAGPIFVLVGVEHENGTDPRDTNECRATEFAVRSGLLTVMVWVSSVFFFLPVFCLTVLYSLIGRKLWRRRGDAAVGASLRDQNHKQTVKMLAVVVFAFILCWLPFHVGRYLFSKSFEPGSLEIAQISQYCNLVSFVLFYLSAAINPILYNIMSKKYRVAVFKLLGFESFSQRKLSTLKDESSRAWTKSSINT
Experimental: Male Crl CD BR rats (Charles River, Italy) weighing 150-175 g were housed in a chamber at regulated temperature (22±1° C.) and humidity (55±10%) and with a 12-hour lightness-darkness cycle, for at least 7 days before their use. Feed and water were available ad libitum. The feed was removed 18 hours before sacrificing the animals. The rats were sacrificed by cervical dislocation, and the stomach was removed surgically, opened along the shorter curvature and placed in a Krebs solution (of composition (mM): 118.4 NaCl; 4.7 KCl; 2.5 CaCl2; 3.7 NaH2PO4; 1.2 MgSO4; 25 NaHCO3; 5.6 glucose). The animals were cared for and sacrificed according to the Sanofi-Aventis international code of ethics and the international principles governing the care and treatment of laboratory animals (EEC Directive 86/609, DJL358, 1, 12 Dec. 1987). […] The contractions were recorded by computer with a data recording and analysis system (Power Lab, Chart 5) connected to isotonic transducers (Ugo Basile, Varese, Italy) via preamplifiers (Octal Bridge Amp). […] The pKb values for the antagonists were calculated according to the Cheng-Prusoff equation (Kenakin et al., Competitive Antagonism, Pharmacologic Analysis of Drug-Receptor Interaction, 3rd edition, 331-373, Philadelphia, New York; Raven: Lippincott, 1997).

SMILES	melting point	IC50 (ghrelin receptor)
CCN1C(C)CN(CC(=O)NC2(c3ccc4occc4c3)C(=O)Nc3cc(Cl)cc(Cl)c32)CC1C (single isomer, unassigned; (+)) [Example 1, (+)-N-[4,6-Dichloro-3-(benzofuran-5-yl)-2-oxo-2,3-dihydro-1H-indol-3-yl]-2-(4-ethyl-3,5-dimethylpiperazin-1-yl)acetamide]	157 to 160 °C	
CCN1CCN(C(C)C(=O)NC2(c3ccc4occc4c3)C(=O)Nc3cc(Cl)cc(Cl)c32)CC1 (single isomer, unassigned; (+)) [Example 2, (+)-N-[4,6-Dichloro-3-(benzofuran-5-yl)-2-oxo-2,3-dihydro-1H-indol-3-yl]-2-(4-ethylpiperazin-1-yl)propionamide]	137 to 138 °C	12 nM
